One assay deals with cancer cell. Kind of assay: Comparison of lactate delivery efficiency to a cancer cell. The assay is classed as cell-based. The settings on record: compared with sodium lactate and potassium lactate.
Assay [1] deals with human colorectal cancer cell lines (HCT-116 and HT-29). Nature of the assay: pH inside and outside cancer cell. The assay is classed as cell-based. As to conditions: 2.5 mM. Here is the method: Specifically, with the cells cultured in Example 2-1, an extracellular pH was measured with a pH meter from the medium for the cells treated with calcium lactate and then cultured and an intracellular pH was measured with a pH detection kit (Life Technologies, CA) from the cells treated with calcium lactate and then cultured (FIG. 4). In this case, cancer cells untreated with calcium lactate were used as control groups.

For assay [2], the system named is VEGF (vascular endothelial growth factor). Nature of the assay: VEGF mRNA and protein expression. The format is cell-based, human. The settings on record: HCT-116 and HT-29; 2.5 mM, 24 hours, hypoxia condition. The method, then:
Human colorectal cancer cell lines (HCT-116 and HT-29) were treated with 2.5 mM calcium lactate under hypoxia condition and cultured for 24 hours. Then, mRNA expression levels and protein expression levels of VEGF in each of the cultured cancer cell lines were analyzed (FIGS. 16a and 16b). In this case, human colorectal cancer cell lines cultured without treating with calcium lactate under normoxia or hypoxia condition were used as control groups.

In the next assay the test system is MCF-7 cell line. Kind of assay: Cell apoptosis rate by flow cytometry (FITC Annexin V / PI). The assay is classed as cell-based. The settings on record: 2.5 mM, 24 hours (untreated 9.63%). The method, then:
(§1) Breast cancer cell lines (MCF-7 and MDA-MB231) were cultured for 24 hours with or without treating with 2.5 mM calcium lactate. Each of the breast cancer cell lines were treated with 5 μl of FITC Annexin V and 5 μl of PI and reacted at room temperature for 15 minutes and then, a flow cytometry analysis was conducted thereto using a FACS Calibur (BD Bioscience, USA) to evaluate staining thereof and thus measure a cancer cell apoptosis rate (FIG. 21a-21f).

The test system of a further assay is MDA-MB231 cell line. Described as above. The format is cell-based. The settings on record: 2.5 mM, 24 hours (untreated 10.17%). Here is the method:
as §1

Assay [3] concerns human colorectal cancer stem cell line. Nature of the assay: Conformational change of sphere of colorectal cancer stem cell line. The format is cell-based. As to conditions: vs DMSO control. Here is the method: A human colorectal cancer stem cell line was inoculated into a stem cell culture medium (medium including 1% penicillin/streptomycin and 50 times B27 and including a DMEM medium and an F12 medium mixed at 1:1) and cultured at 37° C. with 5% CO2. The cultured colorectal cancer stem cell line was treated with calcium lactate and then, it was checked whether or not there is the conformational change of a sphere formed by the stem cells (FIG. 22). In this case, a cancer cell treated with DMSO instead of calcium lactate was used as a control group.

In assay [4] the test system is colorectal cancer cell (HT-29). Nature of the assay: Tumor volume and morphology in HT-29 implanted animal model. The format is in vivo, Balb/c mice. Here is the method:
A colorectal cancer cell (HT-29) cultured in an RPMI1640 medium and then diluted with PBS was subcutaneously implanted into the flank of Balb/c mice. The mice were bred until the colorectal cancer cell grew to about 5 mm. Then, four groups were set up; a control group untreated with calcium lactate for 30 days, an experimental group 1 (peroral, P.O.) administered with 2.5 mM calcium lactate by oral administration, an experimental group 2 (intra tumor, I.T) injected with 2.5 mM calcium lactate around tumor, and an experimental group 3 (subcutaneous, S.C) subcutaneously injected with 25 mM calcium lactate (FIG. 27).
The volumes of colorectal cancer tissues extracted from the mice of the control group or the experimental group 1 set up in Example 10-1 were measured over time and compared with each other (FIG. 30).
The volumes of colorectal cancer tissues extracted from the mice of the control group or the experimental group 2 set up in Example 10-1 were measured over time and compared with each other (FIG. 32).
The tumor morphologies of the mice of the control group or the experimental group 2 set up in Example 10-1 were compared with each other (FIG. 33).
The volumes of colorectal cancer tissues extracted from the mice of the control group or the experimental group 3 set up in Example 10-1 were measured over time and compared with each other (FIG. 34).
The tumor morphologies of the mice of the control group or the experimental group 3 set up in Example 10-1 were compared with each other (FIG. 35).

In assay [5] the test system is human lung cancer cell line (A549). Nature of the assay: Colony-forming ability, anticancer drug in combination with calcium lactate (6-well plates). The assay is classed as cell-based. The settings on record: 2.5 mM calcium lactate alone, vs control. Here is the method:
Human breast cancer cell line (MCF-7) and a human lung cancer cell line (A549) with the cell number of 1×10^3 cells were seeded into an RPMI1640 medium in each of 6-well plates. […]. Then, the colony-forming abilities of the cells were compared. In this case, a human breast cancer cell line (MCF-7) and a human lung cancer cell line (A549) untreated with any drug were used as control groups (FIGS. 42a, 42b, 43a and 43b).
Human lung cancer cell line (A549) with the cell number of 1×10^3 cells were seeded into an RPMI1640 medium in each of 6-well plates. […]. Then, the colony-forming abilities of the cells were compared. In this case, a human lung cancer cell line (A549) untreated with any drug was used as a control group (FIGS. 44a and 44b).
Human lung cancer cell line (A549) with the cell number of 1×10^3 cells were seeded into an RPMI1640 medium in each of 6-well plates. […]. Then, the colony-forming abilities of the cells were compared. In this case, a human lung cancer cell line (A549) untreated with any drug was used as a control group (FIGS. 47a and 47b).
Human lung cancer cell line (A549) with the cell number of 1×10^3 cells were seeded into an RPMI1640 medium in each of 6-well plates. […]. Then, the colony-forming abilities of the cells were compared. In this case, a human lung cancer cell line (A549) untreated with any drug was used as a control group (FIGS. 49a and 49b).
Human lung cancer cell line (A549) with the cell number of 1×10^3 cells were seeded into an RPMI1640 medium in each of 6-well plates. […]. Then, the colony-forming abilities of the cells were compared. In this case, a human lung cancer cell line (A549) untreated with any drug was used as a control group (FIGS. 50a and 50b).
Human lung cancer cell line (A549) with the cell number of 1×10^3 cells were seeded into an RPMI1640 medium in each of 6-well plates. […]. Then, the colony-forming abilities of the cells were compared. In this case, a human lung cancer cell line (A549) untreated with any drug was used as a control group (FIGS. 51a and 51b).

Assay [6] deals with human liver cancer cell line (Hep3B). Described as above. As to conditions: 2.5 mM calcium lactate alone, vs control. The assay is classed as cell-based. The method, then:
Human liver cancer cell line (Hep3B) with the cell number of 1×10^3 cells were seeded into an RPMI1640 medium in each of 6-well plates. After one day, the medium was replaced with fresh medium and the cells were treated with 2.5 mM calcium lactate or 1 μM, 2.5 μM, and 5 μM Sorafenib alone or treated with various concentrations (1 μM, 2.5 μM, and 5 μM) of Sorafenib in combination with 2.5 mM calcium lactate. Then, the colony-forming abilities of the cells were compared. In this case, a human liver cancer cell line (Hep3B) untreated with any drug was used as a control group (FIGS. 45a and 45b).

As for `CC(O)C(=O)[O-].CC(O)C(=O)[O-].[Ca+2]` (stereo not drawn) [calcium lactate], in the assay with cancer cell, the “lactate delivery efficiency to a cancer cell” value was “highest lactate delivery efficiency”. In addition, in assay [1] (pH detection kit), the “intracellular pH” value was “decreased to acidic condition”. Further, the “extracellular pH” value in [1] (pH meter, medium) is “not changed”. Besides, the “VEGF level (mRNA and protein)” value in [2] was “decreased”. In addition, the figures for the cell apoptosis rate in the assay on MCF-7 cell line and in the assay on MDA-MB231 cell line were 33.8% and 13.05%, respectively. For the same compound, the “conformation of the sphere” value in [3] is on record as “destructed”. For the same compound, the tumor morphology result is “decreased in size with decreased angiogenesis” in assay [4] (2.5 mM injected around tumor); “greatly decreased in size and angiogenesis is also reduced” in assay [4] (25 mM subcutaneously injected). In addition, the final tumor volume result in [4] (25 mM subcutaneously injected, 30 days (control about 2300)) is given as “about 80 mm^3”. The colony-forming ability entry in assay [5] and in assay [6] was “suppressed” throughout.
